Laboratory results published in patent US5153352A, “Process for preparation of intermediates of carbocyclic nucleoside analogs” (priority 1990, dated 1992).
≈ marks a conversion by molar mass, not a printed value. Where “and” joins values, the source holds several entries; their conditions need not be identical. Equal entries are not always repeated.

Experiments:
[1] = test system: Herpes simplex type 1 (HSV-1) strain E-377; assay: CPE-inhibition assay, HSV-1 strain E-377 in Vero cells
[2] = cytotoxicity in uninfected PHA-stimulated human PBM cells; type: cell-based; conditions: uninfected PBMC, 6 days, read-out: Cytotoxicity in PBMC IC50
Protocol: Human peripheral blood mononuclear cells (PBMC) from healthy HIV-1 seronegative and hepatitis B virus seroneqative donors were isolated by Ficoll-Hypague discontinuous gradient centrifugation at 1,000×g for 30 minutes, washed twice in phosphate buffered saline (pH 7.2; PBS), and pelleted at 300×g for 10 minutes. Before infection, the cells were stimulated by phytohemagglutinin (PHA) at a concentration of 16.7 ug/ml for three days in RPMI 1640 medium supplemented with 15% heat-inactivated fetal calf serum, 1.5 mM L-glutamine, penicillin (100 U/ml), streptomycin (100 ug/ml) and 4 mM sodium bicarbonate buffer.
The test compounds were evaluated for their potential toxic effects on uninfected PHA-stimulated human PBM cells. The cells were cultured with and without test compound for 6 days at which time aliquots were counted for cell viability.

[3] = MTT cytotoxicity assay in MRC5 cells; type: cell-based; conditions: human
Protocol: (§1) Human diploid embryonic lung (MRC5) cells were grown in 35 mm wells of 6-well tissue culture plates. Subconfluent cell monolayers were rinsed with phosphate buffered saline (PBS) and were exposed to 0.5 ml/well of HCMV (strain AD169) suspension for 1.5 hours at 37° C. The virus suspension was diluted in MEM+2% fetal bovine serum (FBS) to yield a multiplicity of infection (MOI) of approximately 0.1 plaque forming units (PFU)/cell. Following the virus adsorption period, the inocula were removed and infected cell layers were rinsed with PBS. Aliquots (2.0 ml) of each test drug concentration (dissolved in MEM supplemented with 2% FBS) were dispensed into triplicate cell cultures: two virus infected cultures and one uninfected cytotoxicity control culture (exposed to medium without virus for 1.5 hours). Untreated virus infected control cultures and untreated, uninfected cell control cultures were fed with medium alone.
(§2) All cell culture fluids were replaced with fresh drug and medium 48 hours postinfection (p.i.).
Drug cytotoxicity was determined quantitatively by a method based on the reduction of the tetrazolium salt, 3-(4,5-dimethyl-thiazol-2-yl)-2,5-diphenyl tetrazolium bromide (MTT) by mitochondrial enzymes of viable host cells to MTT formazan (T. Mosmann, 1983). Drug cytotoxicity controls and cell controls were treated with MTT (dissolved in culture medium) followed by 20% SDS (in 0.02 N HCl) to dissolve the crystals of MTT formazan. The blue color of the MTT formazan was measured spectrophotometrically at 570 nm. Drug cytotoxicity was determined by comparing the absorbance (O.D.) of each drug cytotoxicity control with the mean O.D. of the cell control cultures and expressed as percent of control.

[4] = test system: Herpes simplex type 2 (HSV-2) strain MS; assay: CPE-inhibition assay, HSV-2 strain MS in Vero cells; conditions: for EC50: Human alphaherpesvirus 2, Vero, read-out: ID50 (minimum drug concentration that inhibited the CPE by 50%), HSV-2 (MS), Vero
[5] = test system: HCT8: Adenocarcinoma, ileocecal; assay: cytotoxic activity against cultured tumor cells, HCT-8; type: cell-based; conditions: Homo sapiens, 72 h; HCT-8, 3 days, MTT
[6] = cytotoxicity in ATH8 cells (method of Mitsuya and Broder); type: cell-based; conditions: human
Text: The method of Mitsuya and Broder (AIDS: Modern Concepts and Therapeutic Challenges; Broder, S. ED.; Marcel Dekker, Inc.; New York, 1987; Chapter 18) was used to determine the in vitro anti-HIV-1 and anti-HIV-2 activity in ATH8 cells of some compounds of the invention. […]

[7] = test system: P388D1: Lymphocytic Leukemia; assay: cytotoxic activity against cultured tumor cells, P388-D1; type: cell-based; conditions: Mus musculus, P388D1, 72 h; P388-D1, 3 days, MTT
A549: Lung carcinoma = assay: cytotoxic activity against cultured tumor cells, A549; type: cell-based; conditions: Homo sapiens, 72 h; A549, 3 days, MTT
[8] = test system: Human Cytomegalovirus (HCMV); assay: HCMV virus yield reduction assay in MRC5 cells; type: cell-based, Human cytomegalovirus (strain AD169)
Protocol: as §1, §2
On Day 6 p.i., the cell layers were examined microscopically for cytopathogenic effect (CPE) and drug cytotoxicity. The test and virus control cultures were then harvested by subjecting the cell layers to one cycle of freeze-thawing.
The harvested test and virus control samples were thawed and the infectious virus yield was determined by plaque assay in MRC5 cells grown in 12-well cluster plates. Inhibition of HCMV replication by each test compound was determined by comparing the progeny virus yields in the drug-treated cultures with the progeny virus yield in the untreated, virus infected control cultures.

[9] = Human betaherpesvirus 5, 144 h, 1.0 ug/ml
[10] = Human betaherpesvirus 5, 144 h, 3.2 ug/ml
[11] = Human betaherpesvirus 5, 144 h, 10 ug/ml
[12] = Human betaherpesvirus 5, 144 h, 32 ug/ml

Structure (SMILES)	TI (Therapeutic Index, MTC/ID50) ([1]; HSV-1 (E-377), Vero)	CC50 at 144 h [2]	viability ([3]; 3.2 ug/ml)	viability ([3]; 10 ug/ml)	viability ([3]; 32 ug/ml)	EC50 [4]	IC50 [5]	cytotoxicity at 1 µM ([6]; HIV-1 experiment)	cytotoxicity at 10 µM ([6]; HIV-1 experiment)	cytotoxicity at 1 µM ([6]; HIV-2 experiment)	cytotoxicity at 10 µM ([6]; HIV-2 experiment)	IC50 [7]	IC50 (A549: Lung carcinoma)	HCMV yield ([8]; 1.0 ug/ml)	HCMV yield ([8]; 3.2 ug/ml)	HCMV yield ([8]; 10 ug/ml)	HCMV yield ([8]; 32 ug/ml)	log reduction at 1 µg/mL [8, 9]	log reduction at 3.2 µg/mL [8, 10]	log reduction at 10 µg/mL [8, 11]	also measured
Nc1nc2c(ncn2C2CC(CO)C2CO)c(=O)[nH]1 (stereo not shown) [Example 1I, 9-(2',3'-Bis(hydroxymethyl)cyclobutyl)guanine]	213 and 129	38.8 µM	100%	100%	100%	6.4 µg/mL (≈ 24.1 µM)	> 100 µg/mL	0%	0%	11%	11%	2.8 µg/mL (≈ 10.6 µM)	94.6 µg/mL (≈ 357 µM)	3.12 log10 PFU/ml	2.43 log10 PFU/ml	1.63 log10 PFU/ml	< 0.6 log10 PFU/ml	1.15	1.84	2.64	EC50 ([1]; Human alphaherpesvirus 1, Vero, read-out: ID50 (minimum drug concentration that inhibited the CPE by 50%), HSV-1 (E-377), Vero): 1.5 µg/mL (≈ 5.65 µM); viability ([3]; 1.0 ug/ml): 100%; TI (Therapeutic Index, MTC/ID50) ([4]; HSV-2 (MS), Vero): 50 and 30; log reduction at 32 µg/mL [8, 12]: > 3.7
Nc1ncnc2c1ncn2C1CC(CO)C1CO (stereo not shown) [Example 4C, 9-(2',3'-Bis(hydroxymethyl)cyclobutyl)adenine]	3.7 and > 2.2	23 µM	95%	90%	67%	18.1 µg/mL (≈ 72.6 µM)	71.4 µg/mL (≈ 286 µM)	12%	33%	9%	15%	0.64 µg/mL (≈ 2.57 µM)	49.1 µg/mL (≈ 197 µM)	2.6 log10 PFU/ml	< 0.6 log10 PFU/ml	< 0.6 log10 PFU/ml	< 0.6 log10 PFU/ml	2.1	> 4.1	> 4.1	VR (Virus Rating) ([1]; HSV-1 (E-377), Vero, >1.0 definite, 0.5-0.9 marginal to moderate, <0.5 no significant activity): 2.1; cytotoxicity at 100 µM ([6]; HIV-1 experiment, 100 uM): 34%; HCMV yield ([8]; 0.32 ug/ml): 3.3 log10 PFU/ml; log reduction at 0.32 µg/mL ([8]; Human betaherpesvirus 5, 144 h, 0.32 ug/ml): 1.4; log reduction at 32 µg/mL [8, 12]: > 4.1
